Laboratory results as given in patent US7884135B2, “Modafinil-based treatment for premature ejaculation” (NeuroHealing Pharmaceuticals, Inc., priority 2006, dated 2011).

How the values were obtained:
[1] = tested on: ejaculation during sexual activity; experiment: Delayed ejaculation with orally administered (tablet) racemic modafinil (Example 2, Subject 2); assay type: in vivo, human; conditions: 200 mg oral PROVIGIL tablet, hours after dosing
Method: Subject 2 took racemic modafinil (200 mg) in the form of an orally administrable tablet of PROVIGIL® (Cephalon) at 3:00 pm for the purpose of increasing alertness.

[2] = cited from earlier work
mice = conditions: cited from earlier work
[3] = tested on: ejaculation during sexual activity; experiment: Delayed ejaculation with sublingually administered d-modafinil (Example 1, Subject 1); assay type: in vivo, human; conditions: 100 mg d-modafinil formulation sublingually
Method: The synthesized d-modafinil was compounded into a composition containing sugar, spearmint flavor, cinnamon flavor, gum arabic, gelatin, corn syrup, and dyes that could be administered sublingually. Formulations containing 100 mg of d-modafinil were prepared.
Subject 1 took the above-described formulation of d-modafinil sublingually at 9:00 pm in the course of testing a composition containing d-modafinil for a different effect unrelated to sexual activity.

[4] = pharmacokinetic studies of modafinil in the human body (literature); assay type: in vivo; conditions: l-enantiomer versus d-enantiomer
Method: The optical enantiomers of modafinil have similar pharmacological actions in animals. […] Owing to the differences in half-life and rate of clearance of the individual enantiomers, the use of racemic modafinil results in differences in the circulating levels of the two enantiomers. […] After a single oral dose, racemic modafinil is readily absorbed, reaching maximum plasma concentrations at 2 hours to 4 hours after administration (see, e.g., Wong et al., J. Clin. Pharmacol., 39: 3040 (1999); Wong et al., J. Clin. Pharmacol., 39: 281-288 (1999); Robertson et al., Clin. Pharmacokinet., 42: 123-137 (2003); and Dinges et al., Curr. Medical Research and Opinions, 22: 159-169 (2006)).

| Compound | delay in ejaculation during sexual activity [1] | fraction of modafinil eliminated by the liver ([2]; humans, ingestion of PROVIGIL tablets, package insert) [%] | pharmacological activity compared with the modafinil racemic compound (mice) | time to ejaculate during sexual activity, factor longer than usual ([3]; first administration) | time to ejaculate during sexual intercourse, factor of delay ([3]; second administration a week later) | amount in the circulation relative to l-modafinil ([2]; after use of racemic modafinil) | elimination rate relative to l-modafinil ([2]; human, d-modafinil versus l-modafinil) | half-life relative to the d-enantiomer [4] |
| --- | --- | --- | --- | --- | --- | --- | --- | --- |
| NC(=O)C[S+]([O-])C(c1ccccc1)c1ccccc1 (racemic) [modafinil, 2-[(diphenylmethyl)sulfinyl]acetamide] | experienced a delay in ejaculation | ≤ 90 | – | – | – | – | – | – |
| NC(=O)C[S@+]([O-])C(c1ccccc1)c1ccccc1 [d-modafinil, S-(+)-modafinil] | – | – | same pharmacological activity | about two to three | about two to three | three times less | three times faster | – |
| NC(=O)C[S@@+]([O-])C(c1ccccc1)c1ccccc1 [l-modafinil, R-(−)-modafinil, reference compound] | – | – | same pharmacological activity | – | – | – | – | approximately three-times longer |
